For orientation: MIC means the smallest concentration in the dilution series that meets the test's criterion for growth inhibition. As usually defined, the MIC90 is the lowest concentration that inhibits either 90% of growth or 90% of the strains tested, depending on the study. The MIC50 is an inhibitory concentration at the 50% level, which refers to growth in some studies and to a panel of isolates in others.

Each structure is given as a SMILES string. In brackets after ≈: the same amount, converted by molar mass. Starred links: 1 amine or outer side, 2 acyl side, 3 side chain; linkers in the order of their positions; H or OH if unused. Non-standard residues stand in square brackets, D forms with d. Residues, ends and D or L forms follow the SMILES beside them. ξ: configuration not given here. *: point of attachment. X1 = CCC(=O)C[C@@H](O)C[C@@H](C)C[C@H](N[*:1])C(=O)[*:2]; Alaψ(CH2NMeCH2CH2OH) = C[C@@H](CN(C)CCO)N*; Decanoyl(2R-Me) = CCCCCCCC[C@@H](C)C(=O)*; Ile(3ξ) = CCC(C)[C@H](N)C(=O)O; ξβ3hP = O=C(O)CC1CCCN1; Aib = CC(C)(N)C(=O)O

For four compounds, MIC, MIC90 and MIC50 results are on record in ChEMBL document CHEMBL5226287, “Small organic molecules targeting the energy metabolism of Mycobacterium tuberculosis” (Eur J Med Chem, 2021).

Holding throughout (type): functional
Assay [1] concerns Mycobacterium tuberculosis variant bovis. The assay is described as follows: Antimycobacterial activity against Mycobacterium bovis BCG ATCC 35737 at 50 uM by Luminescence assay.
For assay [2] the test system is unchanged. The assay is described as follows: Antibacterial activity against Mycobacterium bovis BCG assessed as inhibition of bacterial growth by microdilution based analysis. Background: In broth dilution the organism is exposed to a series of concentrations in liquid medium.
The test system is the same in assay [3]. The assay is described as follows: Antibacterial activity against Mycobacterium bovis BCG assessed as complete inhibition of bacterial growth by Alamar Blue/Resazurin. (Resazurin is reduced to fluorescent resorufin, in cell work by metabolically active cells.)
The test system is the same in assay [4]. The assay is described as follows: Antimycobacterial activity against Mycobacterium bovis BCG assessed as reduction in bacterial growth incubated for 48 hrs by HT-SPOTi assay.

`Cc1ccc(C(=O)N2CCOCC2)cc1Nc1nccn1-c1cc(NC2CC2)ncn1` showed an MIC in assay [1] of 0.036 µM (≈ 0.0151 µg/mL). With `Cc1ccc2nc(C)c(C(=O)NCc3ccc(C(F)(F)F)cc3)n2c1`, in assay [2], the MIC was 0.5 µM (≈ 0.174 µg/mL). With `CCc1nc2ccc(Cl)cn2c1C(=O)NCc1ccc(N2CCC(c3ccc(OC(F)(F)F)cc3)CC2)cc1` [TELACEBEC], the MIC90 in assay [3] stood at 0.125 µg/mL (≈ 0.224 µM). For the compound `CCCCCCCC[C@@H](C)C(=O)N1CCCC1CC(=O)N[C@@H](C[C@H](C)C[C@H](O)CC(=O)CC)C(=O)NC(C)(C)C(=O)NC(C)(C)C(=O)N[C@H](C(=O)N[C@H](C(=O)NC(C)(C)C(=O)NC(C)(C)C(=O)N[C@@H](C)CN(C)CCO)C(C)C)C(C)CC` (stereo partly drawn) ({Decanoyl(2R-Me)}-[ξβ3hP][X1][Aib][Aib][Ile(3ξ)]V[Aib][Aib]-{Alaψ(CH2NMeCH2CH2OH)}), in assay [4], the MIC50 is 33 µM (≈ 38.9 µg/mL).
